# Laboratory results: US6391882B1, “4,5,6 and 7-indole and indoline derivatitives, their preparation and use” (H. Lundbeck A/S, priority 1998, dated 2002)
# Structures can show the parent of a compound that is named as a salt.
row,SMILES,melting point [°C]
1,C#CCn1ccc2c(N3CCN(CCc4c[nH]c5cc(Cl)ccc45)CC3)cccc21,197 to 199
2,C#CCn1ccc2c(N3CCN(CCc4c[nH]c5ccc(F)cc45)CC3)cccc21,153 to 155
3,C#CCn1ccc2c(N3CCN(CCc4c[nH]c5ccc(Br)cc45)CC3)cccc21,154 to 156
4,C=CCn1ccc2c(N3CCN(CCc4c[nH]c5ccc(F)cc45)CC3)cccc21 (as salt: fumarate),210 to 212
5,C#CCn1ccc2c(N3CCN(CCc4c[nH]c5ccccc45)CC3)cccc21 (as salt: fumarate),193 to 195
6,"Fc1ccc2[nH]cc(CCN3CCN(c4cccc5[nH]ccc45)CC3)c2c1 (as salt: fumarate) [Compound 2c, 1-(2-(5-Fluoro-1H-indol-3-yl)ethyl)-4-(1H-indol-4-yl)piperazine]",212 to 215
7,"Clc1ccc2c(CCN3CC=C(c4cccc5[nH]ccc45)CC3)c[nH]c2c1 (as salt: fumarate) [Compound 2g, 1-(2-(6-Chloro-1H-indol-3-yl)ethyl)-4-(1H-indol-4-yl)-1,2,3,6-tetrahydropyridine]",225 to 226
8,"Fc1ccc2[nH]cc(CCN3CC=C(c4cccc5[nH]ccc45)CC3)c2c1 (as salt: fumarate) [Compound 2h, 1-(2-(5-Fluoro-1H-indol-3-yl)ethyl)-4-(1H-indol-4-yl)-1,2,3,6-tetrahydropyridine]",204 to 206
9,"Fc1ccc2[nH]cc(CCN3CCN(c4cccc5c4ccn5Cc4ccccc4)CC3)c2c1 (as salt: fumarate) [Compound 2m, 1-(1-Benzyl-1H-indol-4-yl)-4-(2-(5-fluoro-1H-indol-3-yl)ethyl)piperazine]",178 to 180
10,"c1ccc(Cn2ccc3c(N4CCN(CCc5c[nH]c6ccccc56)CC4)cccc32)cc1 (as salt: fumarate) [Compound 2s, 1-(1-Benzyl-1H-indol-4-yl)-4-(2-(1H-indol-3-yl)ethyl)piperazine]",188 to 190
11,"Brc1ccc2[nH]cc(CCN3CCN(c4ccc5[nH]ccc5c4)CC3)c2c1 (as salt: fumarate) [Compound 2t, 1-(2-(5-Bromo-1H-indol-3-yl)ethyl)-4-(1H-indol-5-yl)piperazine]",231 to 233
12,"Clc1ccc2[nH]cc(CCN3CCN(c4ccc5[nH]ccc5c4)CC3)c2c1 (as salt: fumarate) [Compound 2u, 1-(2-(5-Chloro-1H-indol-3-yl)ethyl)-4-(1H-indol-5-yl)piperazine]",232 to 234
13,"N#Cc1c[nH]c2cccc(N3CCN(CCc4c[nH]c5ccccc45)CC3)c12 (as salt: fumarate) [Compound 4m, 1-(3-Cyano-1H-indol-4-yl)-4-(2-(1H-indol-3-yl)ethyl)piperazine]",> 250
14,"N#Cc1c[nH]c2cccc(N3CCN(CCc4coc5ccc(F)cc45)CC3)c12 (as salt: fumarate) [Compound 4n, 1-(3-Cyano-1H-indol-4-yl)-4-(2-(5-fluoro-3-benzofuranyl)ethyl)piperazine]",235 to 237
15,"N#Cc1c[nH]c2cccc(N3CCN(CCc4c[nH]c5cc(Cl)ccc45)CC3)c12 (as salt: fumarate) [Compound 4o, 1-(2-(6-Chloro-1H-indol-3-yl)ethyl)-4-(3-cyano-1H-indol-4-yl)piperazine]",234 to 236
16,"Fc1ccc2occ(CCCN3CC=C(c4cccc5[nH]ccc45)CC3)c2c1 (as salt: fumarate) [Compound 4s, 1-(3-(5-Fluoro-3-benzofuranyl)-1-propyl)-4-(1H-indol-4-yl)-1,2,3,6-tetrahydropyridine]",183 to 185
17,"N#Cc1c[nH]c2cccc(N3CCN(CCc4c[nH]c5cccc(Cl)c45)CC3)c12 (as salt: fumarate) [Compound 4x, 1-(2-(4-Chloro-1H-indol-3-yl)ethyl)-4-(3-cyano-1H-indol-4-yl)piperazine]",> 250
18,"Fc1ccc2occ(CCCCN3CCN(c4cccc5[nH]ccc45)CC3)c2c1 (as salt: hydrochloride) [Compound 1d, 1-(4-(5-Fluoro-3-benzofuranyl)-1-butyl)-4-(1H-indol-4-yl)piperazine]",241 to 244
19,"Fc1ccc2occ(CCCN3CCN(c4cccc5[nH]ccc45)CC3)c2c1 (as salt: hydrochloride) [Compound 1h, 1-(3-(5-Fluoro-3-benzofuranyl)-1-propyl)-4-(1H-indol-4-yl)piperazine]",230 to 234
20,"Cc1oc2c(F)c(F)c(F)c(F)c2c1CCN1CCN(c2cccc3[nH]ccc23)CC1 (as salt: hydrochloride) [Compound 1i, 1-(2-(2-Methyl-4,5,6,7-tetrafluoro-3-benzofuranyl)ethyl)-4-(1H-indol-4-yl)piperaziine]",181 to 187

row,SMILES,melting point [°C]
1,"Fc1ccc2occ(CN3CCN(c4cccc5[nH]ccc45)CC3)c2c1 (as salt: hydrochloride) [Compound 4l, 1-(5-Fluoro-3-benzofuranylmethyl)-4-(1H-indol-4-4-yl)piperazine]",238 to 240
2,"Cc1ccc2occ(CCN3CCN(c4cccc5[nH]ccc45)CC3)c2c1 (as salt: hydrochloride) [Compound 4q, 1-(1H-Indol-4-yl)-4-(2-(5-methyl-3-benzofuranyl)ethyl)piperazine]",258 to 260
3,"c1cc(N2CCN(Cc3coc4ccccc34)CC2)c2cc[nH]c2c1 (as salt: oxalate) [Compound 1b, 1-(3-Benzofuranylmethyl)-4-(1H-indol-4-yl)piperazine]",226 to 228
4,"Fc1ccc2occ(CCN3CCN(c4cccc5[nH]ccc45)CC3)c2c1 (as salt: oxalate) [Compound 1c, 1-(2-(5-Fluoro-3-benzofuranyl)ethyl)-4-(1H-indol-4-yl)piperazine]",196 to 197
5,"c1ccc2c(CCN3CCN(c4cccc5[nH]ccc45)CC3)c[nH]c2c1 (as salt: oxalate) [Compound 1e, 1-(2-(1H-indol-3-yl)ethyl)-4-(1H-indol-4-yl)piperazine]",167 to 169
6,"c1ccc2c(CCCN3CCN(c4cccc5[nH]ccc45)CC3)c[nH]c2c1 (as salt: oxalate) [Compound 1f, 1-(3-(1H-indol-3-yl)-1-propyl)-4-(1H-indol-4-yl)piperazine]",198 to 204
7,"c1ccc2c(CCCCN3CCN(c4cccc5[nH]ccc45)CC3)c[nH]c2c1 (as salt: oxalate) [Compound 1g, 1-(4-(1H-indol-3-yl)-1-butyl)-4-(1H-indol-4yl)piperazine]",189 to 193
8,"c1cc(N2CCN(CCc3n[nH]c4ccccc34)CC2)c2cc[nH]c2c1 (as salt: oxalate) [Compound 1j, 1-(2-(3-Indazolyl)ethyl)-4-(1H-indol-4-yl)piperazine]",149 to 151
9,"Clc1ccc2c(CCN3CCN(c4cccc5[nH]ccc45)CC3)n[nH]c2c1 (as salt: oxalate) [Compound 1k, 1-(2-(6-Chloro-3-indazolyl)ethyl)-4-(1H-indol-4-yl)piperazine]",255 to 258
10,"N#Cc1cccc2c(CCN3CCN(c4cccc5[nH]ccc45)CC3)c[nH]c12 (as salt: oxalate) [Compound 1l, 1-(2-(7-Cyano-1H-indol-3-yl)ethyl)-4-(1H-indol-4-yl)piperazine]",241 to 243
11,"Clc1cccc2[nH]cc(CCN3CCN(c4cccc5[nH]ccc45)CC3)c12 (as salt: oxalate) [Compound 2b, 1-(2-(4-Chloro-1H-indol-3-yl)ethyl)-4-(1H-indol-4-yl)piperazine]",245 to 247
12,"Brc1cccc2c(CCN3CCN(c4cccc5[nH]ccc45)CC3)c[nH]c12 (as salt: oxalate) [Compound 2i, 1-(2-(7-Bromo-1H-indol-3-yl)ethyl)-4-(1H-indol-4-yl)piperazine]",149 to 151
13,"COC(=O)c1cc(N2CCN(CCc3c[nH]c4ccccc34)CC2)c2cc[nH]c2c1 (as salt: oxalate) [Compound 4f, 1-(2-(1H-indol-3-yl)ethyl)-4-(6-methoxycarbonyl-1H-indol-4-yl)piperazine]",213 to 216
14,"COC(=O)c1cc(N2CCN(CCc3c[nH]c4cc(Cl)ccc34)CC2)c2cc[nH]c2c1 (as salt: oxalate) [Compound 4g, 1-(2-(6-Chloro-1H-indol-3-yl)ethyl)-4-(6-methoxycarbonyl-1-H-indol-4-yl)piperazine]",228 to 230
15,"COC(=O)c1cc(N2CCN(CCc3coc4ccc(F)cc34)CC2)c2cc[nH]c2c1 (as salt: oxalate) [Compound 4h, 1-(2-(5-Fluoro-3-benzofuranyl)ethyl)-4-(6-methoxycarbonyl-1H-indol-4-yl)piperazine]",227 to 228
16,"N#Cc1c[nH]c2cccc(N3CCN(CCc4coc5ccccc45)CC3)c12 (as salt: oxalate) [Compound 4p, 1-(2-(3-Benzofuranyl)ethyl)-4-(3-cyano-1H-indol-4-yl)piperazine]",221 to 223
17,"Cc1cccc2occ(CCN3CCN(c4cccc5[nH]ccc45)CC3)c12 (as salt: oxalate) [Compound 4r, 1-(1H-Indol-4-yl)-4-(2-(4-methyl-3-benzofuranyl)ethyl)piperazine]",204 to 206
18,"Clc1ccc2occ(CCN3CCN(c4cccc5[nH]ccc45)CC3)c2c1 (as salt: oxalate) [Compound 4t, 1-(2-(5-Chloro-3-benzofuranyl)ethyl)-4-(1H-indol-4-yl)piperazine]",200 to 202
19,"Cc1ccc2c(CCN3CCN(c4cccc5[nH]ccc45)CC3)coc2c1 (as salt: oxalate) [Compound 4u, 1-(1H-Indol-4-yl)-4-(2-(6-methyl-3-benzofuranyl)ethyl)piperazine]",190 to 192
20,"Clc1cccc2c(CCN3CCN(c4cccc5[nH]ccc45)CC3)coc12 (as salt: oxalate) [Compound 4v, 1-(2-(7-Chloro-3-benzofuranyl)ethyl)-4-(1H-indol-4-yl)piperazine]",216 to 218
